Values of other authors in patent publication US20180221406A1, “THERAPEUTIC COMBINATIONS OF ANTIVIRAL AND ANTI-INFLAMMATORY THERAPIES” (Foresight Biotherapeutics, Inc., priority 2015, published 2018).

Tests used:
[1] = tested on: acute rhinosinusitis principally of viral origin; settings: in vivo
[2] = tested on: respiratory syncytial virus (RSV); settings: in vivo

| Structure (SMILES) | Efficacy in uncomplicated acute rhinosinusitis [1] | Efficacy in bronchiolitis caused by RSV [2] |
| --- | --- | --- |
| C[C@]12C=CC(=O)C=C1CC[C@@H]1[C@@H]2[C@@H](O)C[C@@]2(C)[C@H]1CC[C@]2(O)C(=O)CO [prednisolone] | ineffective |  |
| C[C@@H]1C[C@H]2[C@@H]3CCC4=CC(=O)C=C[C@]4(C)[C@@]3(F)[C@@H](O)C[C@]2(C)[C@@]1(O)C(=O)CO [dexamethasone, (8S,9R,10S,11S,13S,14S,16R,17R)-9-fluoro-11,17-dihydroxy-17-(2-hydroxyacetyl)-10,13,16-trimethyl-6,7,8,11,12,14,15,16-octahydrocyclopenta[a]phenanthren-3-one] |  | ineffective |
